Experimental data taken from ChEMBL document CHEMBL1201862, “PubChem BioAssay data set” (2004).
Active and inactive are the calls of the source.

Key:
[1] = biological target: Peroxisome proliferator-activated receptor gamma/Nuclear receptor coactivator 3 (Homo sapiens, UniProt P37231); test: (§1) TR-FRET dose response biochemical High Throughput Screening assay for agonists of the steroid receptor coactivator 3 (SRC-3) recruitment by the peroxisome proliferator-activated receptor gamma (PPAR gamma): non-selective agonists. [Related pubchem assays: 1301 (Confirmation screen.), 1048 (Primary screen.)]; type: functional
[2] = biological target: T1, Heat shock factor protein 1 (Mus musculus, UniProt P38532); test: enhancement of HSF1-driven luciferase signal – cell-based, NIH3T3, luminescence, dose retest, confirmation (AID 435004); type: functional;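 further: stress induced by proteasome inhibitor MG132 added 30 min after compound; luciferase reporter driven by HSF1 response element in NIH3T3 cells; actives raise luminescence as potentiators of the MG132 stress response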
T1 sequence (P38532 whole entry): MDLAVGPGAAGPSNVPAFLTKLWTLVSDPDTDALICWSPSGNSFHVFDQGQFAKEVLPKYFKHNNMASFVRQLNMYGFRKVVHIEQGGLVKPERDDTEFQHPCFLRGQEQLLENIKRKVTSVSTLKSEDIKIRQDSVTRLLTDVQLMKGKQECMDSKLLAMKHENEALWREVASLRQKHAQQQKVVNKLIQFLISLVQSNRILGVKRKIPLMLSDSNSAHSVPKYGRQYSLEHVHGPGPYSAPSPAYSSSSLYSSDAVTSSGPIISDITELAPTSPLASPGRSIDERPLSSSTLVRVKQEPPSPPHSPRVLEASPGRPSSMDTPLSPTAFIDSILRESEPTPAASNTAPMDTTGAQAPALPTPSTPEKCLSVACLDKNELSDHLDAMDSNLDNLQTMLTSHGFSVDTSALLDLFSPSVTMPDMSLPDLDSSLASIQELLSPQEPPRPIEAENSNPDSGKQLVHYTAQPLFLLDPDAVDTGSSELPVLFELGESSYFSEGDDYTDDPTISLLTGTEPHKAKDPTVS

[3] = biological target: T2, Corticotropin-releasing factor receptor 2/Corticotropin-releasing factor-binding protein (Homo sapiens, UniProt P24387+Q13324); test: activators of CRF receptor 2 with binding protein – uHTS hits, confirmation (AID 602473); type: functional; settings: read-out: EC50_Mean
T2 sequence (Q13324 whole entry): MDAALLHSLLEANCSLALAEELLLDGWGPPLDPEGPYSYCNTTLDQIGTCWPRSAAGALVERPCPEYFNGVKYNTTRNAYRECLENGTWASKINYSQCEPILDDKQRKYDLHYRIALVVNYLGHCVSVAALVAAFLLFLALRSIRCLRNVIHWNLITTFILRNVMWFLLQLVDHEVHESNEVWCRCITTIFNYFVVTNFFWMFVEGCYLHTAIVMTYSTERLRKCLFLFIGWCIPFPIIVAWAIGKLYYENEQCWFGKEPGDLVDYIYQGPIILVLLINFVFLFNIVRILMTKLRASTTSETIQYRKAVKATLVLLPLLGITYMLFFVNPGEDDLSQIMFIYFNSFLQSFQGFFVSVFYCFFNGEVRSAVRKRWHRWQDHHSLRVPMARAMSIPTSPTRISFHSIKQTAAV
T2 sequence (P24387 whole entry): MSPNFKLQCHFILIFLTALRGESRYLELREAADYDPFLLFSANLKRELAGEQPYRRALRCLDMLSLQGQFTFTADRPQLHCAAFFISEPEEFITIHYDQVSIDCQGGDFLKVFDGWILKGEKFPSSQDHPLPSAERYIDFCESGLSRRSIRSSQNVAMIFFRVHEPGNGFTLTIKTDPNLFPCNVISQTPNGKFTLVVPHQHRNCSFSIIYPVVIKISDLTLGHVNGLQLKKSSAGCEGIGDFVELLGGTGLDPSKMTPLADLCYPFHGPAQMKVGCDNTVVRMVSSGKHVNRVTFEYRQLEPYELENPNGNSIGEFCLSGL

[4] = biological target: Peroxisome proliferator-activated receptor gamma/Nuclear receptor coactivator 1 (Homo sapiens, UniProt P37231); test: as §1, with “1 (SRC-1)” for “3 (SRC-3)”, “assays (depositor defined):AID1300, AID1808, AID504735, AID631]” for “assays: 1301 (Confirmation screen.), 1048 (Primary screen.)]”; type: protein assay
Sequence of Peroxisome proliferator-activated receptor gamma/Nuclear receptor coactivator 1 (P37231 whole entry): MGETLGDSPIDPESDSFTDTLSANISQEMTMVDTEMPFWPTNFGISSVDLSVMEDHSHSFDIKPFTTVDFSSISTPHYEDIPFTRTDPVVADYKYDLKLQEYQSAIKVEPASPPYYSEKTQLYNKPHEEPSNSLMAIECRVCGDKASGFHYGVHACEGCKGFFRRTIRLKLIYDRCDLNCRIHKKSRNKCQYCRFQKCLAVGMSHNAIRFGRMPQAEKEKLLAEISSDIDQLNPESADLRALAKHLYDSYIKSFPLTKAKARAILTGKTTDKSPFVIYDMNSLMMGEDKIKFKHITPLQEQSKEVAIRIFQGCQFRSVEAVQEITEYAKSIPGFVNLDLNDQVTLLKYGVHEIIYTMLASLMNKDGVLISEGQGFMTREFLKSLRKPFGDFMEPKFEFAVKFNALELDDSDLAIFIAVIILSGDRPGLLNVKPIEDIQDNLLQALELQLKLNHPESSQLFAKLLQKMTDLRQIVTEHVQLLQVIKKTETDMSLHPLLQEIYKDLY
Sequence of Peroxisome proliferator-activated receptor gamma/Nuclear receptor coactivator 1 (Q15788 whole entry, further chain): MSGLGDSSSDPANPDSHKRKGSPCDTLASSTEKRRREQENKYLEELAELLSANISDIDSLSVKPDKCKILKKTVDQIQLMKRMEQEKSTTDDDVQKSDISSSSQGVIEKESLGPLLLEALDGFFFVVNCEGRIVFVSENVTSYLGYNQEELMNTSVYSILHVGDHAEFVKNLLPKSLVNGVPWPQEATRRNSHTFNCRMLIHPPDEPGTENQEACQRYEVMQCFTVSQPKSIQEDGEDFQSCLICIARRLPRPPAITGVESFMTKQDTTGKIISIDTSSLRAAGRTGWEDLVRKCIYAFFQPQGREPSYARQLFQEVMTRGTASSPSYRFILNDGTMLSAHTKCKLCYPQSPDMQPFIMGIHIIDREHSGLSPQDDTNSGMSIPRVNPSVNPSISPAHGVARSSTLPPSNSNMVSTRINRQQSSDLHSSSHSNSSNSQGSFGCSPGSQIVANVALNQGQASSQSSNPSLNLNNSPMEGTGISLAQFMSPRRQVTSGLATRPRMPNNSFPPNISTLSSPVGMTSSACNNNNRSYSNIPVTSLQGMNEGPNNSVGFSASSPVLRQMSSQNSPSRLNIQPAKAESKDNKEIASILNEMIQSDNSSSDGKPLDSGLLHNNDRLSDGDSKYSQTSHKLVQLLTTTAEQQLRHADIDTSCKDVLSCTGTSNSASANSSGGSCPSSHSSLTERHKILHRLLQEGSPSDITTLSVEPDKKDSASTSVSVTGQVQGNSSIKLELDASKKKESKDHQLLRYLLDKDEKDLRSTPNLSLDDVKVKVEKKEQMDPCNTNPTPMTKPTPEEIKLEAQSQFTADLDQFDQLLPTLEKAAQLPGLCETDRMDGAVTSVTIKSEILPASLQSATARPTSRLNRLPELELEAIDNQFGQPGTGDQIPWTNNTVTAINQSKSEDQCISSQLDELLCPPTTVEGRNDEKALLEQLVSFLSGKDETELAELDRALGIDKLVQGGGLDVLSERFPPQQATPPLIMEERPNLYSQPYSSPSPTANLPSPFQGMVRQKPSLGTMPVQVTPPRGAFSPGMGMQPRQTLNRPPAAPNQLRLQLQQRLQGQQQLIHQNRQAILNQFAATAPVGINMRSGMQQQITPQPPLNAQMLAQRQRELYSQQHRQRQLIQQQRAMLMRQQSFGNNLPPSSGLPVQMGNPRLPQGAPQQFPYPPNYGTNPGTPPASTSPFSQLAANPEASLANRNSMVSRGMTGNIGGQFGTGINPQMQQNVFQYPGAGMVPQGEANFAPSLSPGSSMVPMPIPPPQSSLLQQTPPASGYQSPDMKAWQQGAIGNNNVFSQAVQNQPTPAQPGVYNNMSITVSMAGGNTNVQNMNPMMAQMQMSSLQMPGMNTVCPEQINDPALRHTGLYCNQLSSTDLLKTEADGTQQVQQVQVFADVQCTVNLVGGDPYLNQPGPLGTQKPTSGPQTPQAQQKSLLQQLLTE

[5] = biological target: Peroxisome proliferator-activated receptor gamma/Nuclear receptor coactivator 2 (Homo sapiens, UniProt P37231); test: TR-FRET dose response biochemical High Throughput Screening assay for agonists of the steroid receptor coactivator 2 (SRC-2) recruitment by the peroxisome proliferator-activated receptor gamma (PPAR gamma): non-selective agonists. [Related pubchem assays: 1297, 1032 ]; type: functional
Sequence of Peroxisome proliferator-activated receptor gamma/Nuclear receptor coactivator 2 (P37231 whole entry): as the sequence (P37231 whole entry) above
Sequence of Peroxisome proliferator-activated receptor gamma/Nuclear receptor coactivator 2 (Q15596 whole entry, further chain): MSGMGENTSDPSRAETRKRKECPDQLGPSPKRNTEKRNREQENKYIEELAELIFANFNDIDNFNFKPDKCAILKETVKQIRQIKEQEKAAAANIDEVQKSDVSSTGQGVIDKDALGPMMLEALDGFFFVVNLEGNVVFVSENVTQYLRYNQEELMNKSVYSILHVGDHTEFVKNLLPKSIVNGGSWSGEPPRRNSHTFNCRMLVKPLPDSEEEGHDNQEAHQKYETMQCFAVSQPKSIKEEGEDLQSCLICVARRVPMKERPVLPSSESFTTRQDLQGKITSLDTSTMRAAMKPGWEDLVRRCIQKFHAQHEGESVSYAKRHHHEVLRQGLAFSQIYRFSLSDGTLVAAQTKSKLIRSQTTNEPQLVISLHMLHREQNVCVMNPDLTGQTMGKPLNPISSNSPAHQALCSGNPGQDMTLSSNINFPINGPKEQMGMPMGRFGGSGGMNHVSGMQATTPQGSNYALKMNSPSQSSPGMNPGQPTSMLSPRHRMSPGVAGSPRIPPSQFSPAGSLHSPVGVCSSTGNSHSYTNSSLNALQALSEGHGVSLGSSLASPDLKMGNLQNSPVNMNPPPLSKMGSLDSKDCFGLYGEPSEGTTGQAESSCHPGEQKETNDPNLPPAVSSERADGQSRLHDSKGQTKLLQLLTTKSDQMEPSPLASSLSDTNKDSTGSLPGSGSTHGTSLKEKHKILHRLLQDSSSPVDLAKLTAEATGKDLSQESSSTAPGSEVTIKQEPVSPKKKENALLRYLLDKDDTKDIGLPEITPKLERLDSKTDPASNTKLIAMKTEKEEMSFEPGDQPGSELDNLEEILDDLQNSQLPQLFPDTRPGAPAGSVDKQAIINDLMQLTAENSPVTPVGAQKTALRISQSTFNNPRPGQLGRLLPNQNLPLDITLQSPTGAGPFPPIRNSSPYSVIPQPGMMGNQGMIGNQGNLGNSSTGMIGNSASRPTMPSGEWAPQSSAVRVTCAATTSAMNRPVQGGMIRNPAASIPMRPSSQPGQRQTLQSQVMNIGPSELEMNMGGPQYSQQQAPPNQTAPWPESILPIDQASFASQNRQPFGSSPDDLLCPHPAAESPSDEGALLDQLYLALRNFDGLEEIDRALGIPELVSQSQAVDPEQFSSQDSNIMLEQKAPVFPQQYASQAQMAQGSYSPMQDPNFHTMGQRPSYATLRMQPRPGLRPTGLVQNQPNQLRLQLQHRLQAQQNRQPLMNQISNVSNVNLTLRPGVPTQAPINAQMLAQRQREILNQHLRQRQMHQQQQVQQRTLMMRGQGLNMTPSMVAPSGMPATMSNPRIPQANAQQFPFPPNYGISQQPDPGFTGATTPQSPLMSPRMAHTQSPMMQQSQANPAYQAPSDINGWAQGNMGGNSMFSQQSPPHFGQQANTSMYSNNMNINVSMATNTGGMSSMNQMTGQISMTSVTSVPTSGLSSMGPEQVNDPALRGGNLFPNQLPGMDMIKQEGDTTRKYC

[6] = biological target: T2, Corticotropin-releasing factor receptor 2/Corticotropin-releasing factor-binding protein; test: Dose Response confirmation of uHTS hits for small molecule antagonists of the CRF-binding protein and CRF-R2 receptor complex.; type: functional; settings: read-out: IC50_Mean
[7] = biological target: T3, High affinity choline transporter 1 (Homo sapiens, UniProt Q9GZV3); test: human choline transporter blockers, potency – cell-based, 5-point CRC, membrane potential dye, dose response (AID 504840); type: functional
T3 sequence (Q9GZV3 whole entry): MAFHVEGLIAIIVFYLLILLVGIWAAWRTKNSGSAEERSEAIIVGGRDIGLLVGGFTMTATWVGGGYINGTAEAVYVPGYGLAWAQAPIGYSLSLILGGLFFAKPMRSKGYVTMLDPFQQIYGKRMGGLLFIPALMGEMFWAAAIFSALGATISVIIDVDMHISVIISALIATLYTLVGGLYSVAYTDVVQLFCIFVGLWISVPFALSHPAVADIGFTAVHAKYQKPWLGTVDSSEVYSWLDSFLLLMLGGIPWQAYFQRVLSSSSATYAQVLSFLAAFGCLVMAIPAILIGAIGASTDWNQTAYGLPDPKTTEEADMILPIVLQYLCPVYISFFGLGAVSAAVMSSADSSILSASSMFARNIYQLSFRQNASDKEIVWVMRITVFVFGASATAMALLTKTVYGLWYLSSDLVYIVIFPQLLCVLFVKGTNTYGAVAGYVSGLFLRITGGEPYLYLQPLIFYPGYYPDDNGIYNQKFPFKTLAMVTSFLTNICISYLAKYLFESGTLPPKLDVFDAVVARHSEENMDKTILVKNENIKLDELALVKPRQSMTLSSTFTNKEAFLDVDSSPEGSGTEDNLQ

[8] = decrease of insulin promoter-GFP reporter – imaging, high-content screening, mouse beta cells (AID 1628); type: functional; settings: MIN6
[9] = MIN6 cell viability loss – mouse insulinoma, cytotoxicity control, dose response (AID 2122); type: functional;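 further: confirmatory high-throughput counterscreen run to flag cytotoxic compounds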
[10] = biological target: T4, Protein RecA (Mycobacterium tuberculosis, UniProt P9WHJ3); test: Fluorescence Cell-Free Homogeneous Dose Retest to Identify Inhibitors of RecA-Intein Splicing Activity. [Related pubchem assays (depositor defined):AID2097, AID2223, AID489010, AID492950]; type: functional
T4 sequence (P9WHJ3 whole entry): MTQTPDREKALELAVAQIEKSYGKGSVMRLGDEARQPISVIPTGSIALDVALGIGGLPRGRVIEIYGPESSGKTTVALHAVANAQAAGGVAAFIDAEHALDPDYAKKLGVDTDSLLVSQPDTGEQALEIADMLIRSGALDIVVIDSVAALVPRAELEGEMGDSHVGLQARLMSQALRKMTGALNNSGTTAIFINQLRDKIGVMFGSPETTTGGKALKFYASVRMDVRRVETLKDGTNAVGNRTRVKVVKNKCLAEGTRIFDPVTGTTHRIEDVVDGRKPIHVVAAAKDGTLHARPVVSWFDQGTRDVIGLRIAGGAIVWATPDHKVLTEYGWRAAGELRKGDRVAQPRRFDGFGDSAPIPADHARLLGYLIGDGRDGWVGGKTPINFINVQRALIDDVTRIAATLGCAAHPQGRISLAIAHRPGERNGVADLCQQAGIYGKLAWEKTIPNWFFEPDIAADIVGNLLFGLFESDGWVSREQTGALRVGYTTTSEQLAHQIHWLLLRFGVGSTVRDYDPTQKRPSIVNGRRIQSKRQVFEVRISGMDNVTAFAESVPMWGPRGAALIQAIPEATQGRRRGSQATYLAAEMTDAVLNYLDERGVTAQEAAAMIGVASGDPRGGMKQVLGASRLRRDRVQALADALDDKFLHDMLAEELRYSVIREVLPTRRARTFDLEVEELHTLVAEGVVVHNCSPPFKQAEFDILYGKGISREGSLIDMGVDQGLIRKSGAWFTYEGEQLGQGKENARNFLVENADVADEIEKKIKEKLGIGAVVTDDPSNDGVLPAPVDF

[11] = biological target: T5, Replicative DNA helicase DnaB (Mycobacterium tuberculosis, UniProt P9WMR3); test: DnaB intein splicing inhibitors, dose response, biochemical, cell-free fluorescence (AID 449749); type: functional
T5 sequence (P9WMR3 whole entry): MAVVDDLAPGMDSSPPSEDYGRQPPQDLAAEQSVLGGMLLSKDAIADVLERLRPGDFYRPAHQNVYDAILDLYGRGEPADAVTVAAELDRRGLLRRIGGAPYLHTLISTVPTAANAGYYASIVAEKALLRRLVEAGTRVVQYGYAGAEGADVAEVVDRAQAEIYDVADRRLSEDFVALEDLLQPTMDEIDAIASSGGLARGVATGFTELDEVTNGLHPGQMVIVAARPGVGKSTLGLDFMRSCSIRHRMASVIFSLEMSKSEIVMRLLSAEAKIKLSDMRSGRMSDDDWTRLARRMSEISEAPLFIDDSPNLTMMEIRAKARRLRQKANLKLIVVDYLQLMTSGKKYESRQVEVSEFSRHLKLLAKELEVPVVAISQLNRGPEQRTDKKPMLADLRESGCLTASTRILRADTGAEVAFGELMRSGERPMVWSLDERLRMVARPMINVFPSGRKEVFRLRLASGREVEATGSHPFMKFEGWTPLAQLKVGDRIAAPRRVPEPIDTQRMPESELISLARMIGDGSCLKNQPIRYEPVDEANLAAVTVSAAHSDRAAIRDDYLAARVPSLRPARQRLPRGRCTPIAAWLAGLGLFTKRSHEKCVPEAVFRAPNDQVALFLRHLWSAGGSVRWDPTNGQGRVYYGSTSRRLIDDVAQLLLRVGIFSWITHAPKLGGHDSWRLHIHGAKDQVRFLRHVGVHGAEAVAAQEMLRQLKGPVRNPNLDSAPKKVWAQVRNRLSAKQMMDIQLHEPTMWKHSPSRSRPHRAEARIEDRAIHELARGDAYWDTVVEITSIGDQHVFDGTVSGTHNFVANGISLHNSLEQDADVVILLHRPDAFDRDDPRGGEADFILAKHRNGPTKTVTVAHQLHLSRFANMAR

Compound	EC50 [1]	EC50 [2]	EC50 [3]	EC50 [4]	EC50 [5]	IC50 [6]	IC50 [7]	IC50 [8]	IC50 [9]	EC50 [10]	AC50 [11]
CC(=O)C1=C(O)C(=O)N(c2nccs2)C1c1ccccc1 (stereo unspecified)	> 79.4 µM (not active)	> 260 µM (inactive)	> 53 µM (inactive)	86.4 µM (inactive)	35.4 µM (not active)	> 47.1 µM (inactive)	–	–	–	–	–
CC1(C)CC2CC(C)(CN2c2ncnc3ccccc23)C1 (stereo unspecified)	–	–	–	–	–	–	6.74 µM (active)	1.7 µM (active)	1.16 µM (active)	–	–
O=C(CSc1c2c(nc3cc(Cl)ccc13)CCCC2)NCc1ccco1	> 79.4 µM (not active)	–	–	> 79.4 µM (inactive)	> 79.4 µM (not active)	–	–	–	–	7.14 µM (active)	27.9 µM (active)
Cc1ccc(-c2noc(CCC(=O)NCCCN3CCN(c4ccc(F)cc4)CC3)n2)cc1	–	–	–	–	–	–	–	3.28 µM (active)	3.21 µM (active)	–	–
